The record followed here is ChEMBL document CHEMBL4043288, “( S)-2-Amino-3-(5-methyl-3-hydroxyisoxazol-4-yl)propanoic Acid (AMPA) and Kainate Receptor Ligands: Further Exploration of Bioisosteric Replacements and Structural and Biological Investigation” (J Med Chem, 2018).

The species named for data set [1] is Rattus norvegicus. Kind of data set: Selectivity ratio of Ki for recombinant homomeric rat GluK3 expressed in Sf9 insect cells to Ki for recombinant homomeric rat GluK1 expressed in Sf9 insect cells.
In data set [2] the target is Glutamate receptor ionotropic, kainate 3 (Rattus norvegicus, UniProt P42264). Kind of data set: Displacement of [3H]SYM2081 from recombinant homomeric rat GluK3 receptor expressed in baculovirus infected Sf9 insect cell membranes. In general terms: In a radioligand displacement assay an active substance lowers the binding of a labelled ligand.
Glutamate receptor ionotropic, kainate 3, sequence (P42264 whole entry): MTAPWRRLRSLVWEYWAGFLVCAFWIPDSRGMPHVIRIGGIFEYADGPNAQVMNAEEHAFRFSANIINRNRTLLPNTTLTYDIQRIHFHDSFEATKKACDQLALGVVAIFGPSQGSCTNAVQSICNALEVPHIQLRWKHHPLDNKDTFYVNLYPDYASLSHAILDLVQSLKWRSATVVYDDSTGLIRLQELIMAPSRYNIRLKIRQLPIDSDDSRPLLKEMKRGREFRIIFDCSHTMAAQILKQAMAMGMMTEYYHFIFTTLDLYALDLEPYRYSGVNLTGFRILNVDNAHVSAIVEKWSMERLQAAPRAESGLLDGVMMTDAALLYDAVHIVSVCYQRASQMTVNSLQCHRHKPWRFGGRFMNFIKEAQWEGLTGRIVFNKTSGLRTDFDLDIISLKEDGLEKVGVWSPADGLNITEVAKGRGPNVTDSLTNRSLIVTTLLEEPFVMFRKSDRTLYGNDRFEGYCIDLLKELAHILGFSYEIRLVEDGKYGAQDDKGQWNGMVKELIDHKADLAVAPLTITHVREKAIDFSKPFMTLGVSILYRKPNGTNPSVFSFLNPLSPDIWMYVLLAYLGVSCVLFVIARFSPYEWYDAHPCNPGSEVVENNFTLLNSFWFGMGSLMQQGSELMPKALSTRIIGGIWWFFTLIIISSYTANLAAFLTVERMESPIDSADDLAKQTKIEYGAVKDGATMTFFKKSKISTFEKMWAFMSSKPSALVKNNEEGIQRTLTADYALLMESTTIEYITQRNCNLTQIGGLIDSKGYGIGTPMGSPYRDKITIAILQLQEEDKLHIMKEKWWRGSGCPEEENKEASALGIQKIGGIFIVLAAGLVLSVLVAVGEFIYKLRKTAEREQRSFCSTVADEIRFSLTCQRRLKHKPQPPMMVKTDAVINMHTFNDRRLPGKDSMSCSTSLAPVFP
In data set [3] the target is Glutamate receptor ionotropic, kainate 2 (Rattus norvegicus, UniProt P42260). The experiment in a line: Displacement of [3H]SYM2081 from recombinant homomeric rat GluK2 receptor expressed in baculovirus infected Sf9 insect cell membranes.
Glutamate receptor ionotropic, kainate 2, sequence (P42260 whole entry): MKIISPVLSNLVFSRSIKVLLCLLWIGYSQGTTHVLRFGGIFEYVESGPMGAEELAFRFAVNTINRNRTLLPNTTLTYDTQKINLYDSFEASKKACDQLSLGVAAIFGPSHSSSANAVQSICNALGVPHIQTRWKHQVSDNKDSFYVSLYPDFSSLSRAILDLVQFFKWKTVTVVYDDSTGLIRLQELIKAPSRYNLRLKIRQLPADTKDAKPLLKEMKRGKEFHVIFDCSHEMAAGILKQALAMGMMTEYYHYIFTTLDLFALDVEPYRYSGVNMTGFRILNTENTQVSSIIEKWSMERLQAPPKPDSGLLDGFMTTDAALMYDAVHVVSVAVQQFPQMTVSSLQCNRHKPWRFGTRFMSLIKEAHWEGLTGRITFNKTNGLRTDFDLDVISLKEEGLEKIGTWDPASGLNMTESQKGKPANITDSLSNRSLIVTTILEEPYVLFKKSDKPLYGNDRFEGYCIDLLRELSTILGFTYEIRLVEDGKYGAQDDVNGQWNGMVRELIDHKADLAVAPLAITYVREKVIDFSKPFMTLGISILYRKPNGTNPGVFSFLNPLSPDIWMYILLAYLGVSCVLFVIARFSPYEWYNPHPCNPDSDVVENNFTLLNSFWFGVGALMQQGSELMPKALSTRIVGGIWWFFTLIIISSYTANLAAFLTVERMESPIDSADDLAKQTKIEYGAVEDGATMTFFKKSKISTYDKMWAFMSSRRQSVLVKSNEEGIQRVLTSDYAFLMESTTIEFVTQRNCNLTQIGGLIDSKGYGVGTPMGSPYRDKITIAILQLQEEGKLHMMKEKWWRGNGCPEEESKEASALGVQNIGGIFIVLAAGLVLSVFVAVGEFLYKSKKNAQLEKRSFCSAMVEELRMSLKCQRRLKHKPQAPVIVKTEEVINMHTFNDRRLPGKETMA
Data set [4] concerns the target Glutamate receptor ionotropic, kainate 1 (Rattus norvegicus, UniProt P22756). Kind of data set: Displacement of [3H]SYM2081 from recombinant homomeric rat GluK1 receptor expressed in baculovirus infected Sf9 insect cell membranes.
Data set [5] deals with Glutamate receptor 2 (Rattus norvegicus, UniProt P19491). Kind of data set: Displacement of [3H]AMPA from recombinant homomeric rat GluA2 receptor expressed in baculovirus infected Sf9 insect cell membranes.
Glutamate receptor 2, sequence (P19491 whole entry): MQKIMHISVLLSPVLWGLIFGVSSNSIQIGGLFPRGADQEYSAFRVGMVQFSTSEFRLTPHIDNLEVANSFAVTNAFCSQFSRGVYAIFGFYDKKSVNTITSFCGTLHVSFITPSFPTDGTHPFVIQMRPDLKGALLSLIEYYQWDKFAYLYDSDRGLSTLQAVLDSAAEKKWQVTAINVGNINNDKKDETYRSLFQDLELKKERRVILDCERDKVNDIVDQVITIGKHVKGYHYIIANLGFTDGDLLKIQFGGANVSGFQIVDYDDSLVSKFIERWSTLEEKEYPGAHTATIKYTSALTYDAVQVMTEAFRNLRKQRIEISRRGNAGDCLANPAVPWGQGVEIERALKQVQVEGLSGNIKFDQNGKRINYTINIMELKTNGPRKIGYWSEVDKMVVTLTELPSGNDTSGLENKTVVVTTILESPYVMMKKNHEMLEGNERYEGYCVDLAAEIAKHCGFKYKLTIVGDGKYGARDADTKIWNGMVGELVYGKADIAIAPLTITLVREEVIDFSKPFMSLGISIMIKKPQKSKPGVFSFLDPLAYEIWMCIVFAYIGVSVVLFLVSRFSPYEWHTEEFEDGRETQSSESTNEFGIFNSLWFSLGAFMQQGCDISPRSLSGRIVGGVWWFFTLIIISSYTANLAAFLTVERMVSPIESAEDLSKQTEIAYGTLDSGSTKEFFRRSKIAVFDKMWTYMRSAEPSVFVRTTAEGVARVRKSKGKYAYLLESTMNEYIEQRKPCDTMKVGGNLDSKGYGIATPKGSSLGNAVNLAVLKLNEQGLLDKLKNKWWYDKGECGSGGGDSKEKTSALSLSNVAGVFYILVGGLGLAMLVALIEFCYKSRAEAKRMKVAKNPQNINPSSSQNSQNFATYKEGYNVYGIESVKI
The species entered for data set [6] is Rattus norvegicus. The experiment in a line: Selectivity ratio of Ki for recombinant homomeric rat GluK3 expressed in Sf9 insect cells to Ki for recombinant homomeric rat GluA2 expressed in Sf9 insect cells.
Data set [7] has as its system Rattus norvegicus. The experiment in a line: Analgesic activity in Wistar Han rat assessed as inhibition of formalin-induced pain by measuring locomotor activities at 2 mg/kg, ip administered 30 mins prior to formalin injection measured after 30 mins by formalin test. The class given is functional, organism-based.
The test system of data set [8] is Rattus norvegicus. The experiment in a line: Analgesic activity in Wistar Han rat assessed as inhibition of formalin-induced pain by measuring time spent licking injected paw in early phase at 2 mg/kg, ip administered 30 mins prior to formalin injection measured for first 15 mins after formalin injection. The format is functional, organism-based.
For data set [9], the system named is Rattus norvegicus. The experiment in a line: Analgesic activity in Wistar Han rat assessed as inhibition of formalin-induced pain by measuring paw-jerk frequency in early phase at 2 mg/kg, ip administered 30 mins prior to formalin injection measured for 15 to 60 mins after formalin injection. The format is functional, organism-based.
The test system of data set [10] is Rattus norvegicus. The experiment in a line: Analgesic activity in Wistar Han rat assessed as inhibition of formalin-induced pain by measuring paw-jerk frequency in early phase at 2 mg/kg, ip administered 30 mins prior to formalin injection measured for first 15 mins after formalin injection. The format is functional, organism-based.
In data set [11] the test system is Rattus norvegicus. The experiment in a line: Analgesic activity in Wistar Han rat assessed as inhibition of formalin-induced pain by measuring flexing duration in late phase at 2 mg/kg, ip administered 30 mins prior to formalin injection measured for 15 to 60 mins after formalin injection.
Data set [12] in a line: Permeability of compound in rat brain at 100 uM perfused for 60 secs by LC-MS analysis. The class given is ADME, tissue-based. As to conditions: not told, other: brain perfusion, read-out: permeability.
Data set [13] has as its system Rattus norvegicus. The experiment in a line: Analgesic activity in Wistar Han rat assessed as inhibition of formalin-induced pain by measuring time spent licking injected paw in late phase at 2 mg/kg, ip administered 30 mins prior to formalin injection measured for 15 to 60 mins after formalin injection.
Data set [14] relates to Rattus norvegicus. The experiment in a line: Analgesic activity in Wistar Han rat assessed as inhibition of formalin-induced pain by measuring flexing duration in early phase at 2 mg/kg, ip administered 30 mins prior to formalin injection measured for first 15 mins after formalin injection. The class given is functional, organism-based.
In data set [15] the test system is Rattus norvegicus. Kind of data set: Analgesic activity in Wistar Han rat assessed as inhibition of formalin-induced pain by measuring locomotor activities at 2 mg/kg, ip administered 30 mins prior to formalin injection measured after 45 mins by formalin test. The format is functional, organism-based.

Active and inactive are the calls of the source. The rule behind the calls is not given here.

Glutamate receptor ionotropic, kainate 1, sequence (P22756 whole entry): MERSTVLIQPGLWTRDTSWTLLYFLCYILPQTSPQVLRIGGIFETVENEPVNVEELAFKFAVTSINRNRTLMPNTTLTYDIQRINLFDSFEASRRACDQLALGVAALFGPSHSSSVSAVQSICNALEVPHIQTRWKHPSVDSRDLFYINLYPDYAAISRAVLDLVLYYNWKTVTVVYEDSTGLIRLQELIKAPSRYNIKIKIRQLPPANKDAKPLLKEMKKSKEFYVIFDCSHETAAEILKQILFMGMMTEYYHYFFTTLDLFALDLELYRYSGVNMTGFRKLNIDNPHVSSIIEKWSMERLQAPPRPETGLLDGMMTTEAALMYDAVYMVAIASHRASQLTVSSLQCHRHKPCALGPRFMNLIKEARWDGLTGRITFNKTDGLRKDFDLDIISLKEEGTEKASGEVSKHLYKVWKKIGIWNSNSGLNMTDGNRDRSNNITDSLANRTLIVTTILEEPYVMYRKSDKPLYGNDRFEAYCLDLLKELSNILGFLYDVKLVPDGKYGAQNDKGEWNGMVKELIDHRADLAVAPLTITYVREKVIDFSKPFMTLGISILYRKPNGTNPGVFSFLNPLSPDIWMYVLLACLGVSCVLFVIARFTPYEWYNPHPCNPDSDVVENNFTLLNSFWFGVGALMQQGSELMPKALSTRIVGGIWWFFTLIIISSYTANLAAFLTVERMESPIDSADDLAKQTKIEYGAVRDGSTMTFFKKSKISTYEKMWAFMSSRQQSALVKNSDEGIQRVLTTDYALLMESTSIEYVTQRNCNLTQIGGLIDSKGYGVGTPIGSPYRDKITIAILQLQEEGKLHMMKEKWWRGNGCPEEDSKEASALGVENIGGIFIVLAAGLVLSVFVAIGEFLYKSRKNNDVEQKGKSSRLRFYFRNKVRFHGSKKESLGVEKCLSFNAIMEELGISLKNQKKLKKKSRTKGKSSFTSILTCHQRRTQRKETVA

On to `N[C@@H](Cn1c(=O)n(Cc2nnc(O)o2)c(=O)c2cscc21)C(=O)O`, for which the Ratio Ki in data set [1] was greater than 3. Besides, the Ki – broadly, a measure of affinity in units of concentration, obtained from inhibition or displacement – is 100 µM in data set [2], greater than 1000 µM in data set [3], 36 µM in data set [4] and greater than 100 µM in data set [5].
As for `N[C@@H](Cn1c2c(c(=O)[nH]c1=O)CNC2)C(=O)O`, the Ratio Ki was 21 in data set [1] and 8 in data set [6]. Moreover, the Ki is 18.1 µM in [2], greater than 1000 µM in [3], 0.869 µM in [4] and 2.37 µM in data set [5].
With `N[C@@H](Cn1c(=O)n(Cc2ccsc2C(=O)O)c(=O)c2cscc21)C(=O)O`, the result in [7], in data set [8], in [9], in data set [10], in data set [11] and in data set [13] was Active. For the same molecule, the result in data set [14] was Active. Besides, the Papp at 1 min, 100 µM in data set [12] came to 0.59 ×10⁻⁶ cm/s.
For `N[C@@H](Cn1c2c(c(=O)[nH]c1=O)COC2)C(=O)O`, the Ki in [2] is 111 µM; in [3], greater than 1000 µM; in [4], 0.586 µM.
`N[C@@H](Cn1c2c(c(=O)[nH]c1=O)CCC2)C(=O)O`: in data set [3], the Ki is greater than 1000 µM.
With `N[C@@H](Cn1c(=O)[nH]c(=O)c2cscc21)C(=O)O`, the outcome in data set [7], in [8], in [9], in data set [10], in [11] and in data set [13] was Active. In addition, the outcome in data set [14] and in data set [15] was Active.
Turning to `CN1Cc2c(n(C[C@H](N)C(=O)O)c(=O)[nH]c2=O)C1`, the values for the Ratio Ki in data set [1] and in data set [6] were 6 and 1, respectively. Moreover, the Ki in [2] is 2.15 µM; in data set [3] it was greater than 1000 µM; in data set [4], 0.356 µM; in data set [5], 1.99 µM.
